# Where two headings read alike, the source gives them in different places.
# Key:
# [1] = amide bond, 15-membered ring
# [2] = system: Del19/T790M/C797S EGFR; experiment: EGFR degradation HTRF assay in H1975-clone #28 (DTC) cells; assay type: cell-based; conditions: H1975 # 28 DTC (Del19/T790M/C797S), 16h treatment; for DC50: HTRF; for Dmax (%): maximum percentage of degradation
# Outline: (§1)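 Remaining EGFR protein was measured by HTRF (337 nm excitation, 665/620 nm emission) in lysates after overnight antibody incubation. Cells had been exposed for 16 h to an 8-point, 5-fold series starting at 10 uM, and DC50 values were fitted with a Hill equation.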
# [3] = target: T1, L858R/T790M/C797S EGFR (Homo sapiens, UniProt P00533, C797S/L858R/T790M); experiment: EGFR degradation HTRF assay in H1975-clone #25 (LTC) cells; assay type: cell-based; conditions: 16h treatment; for DC50 / Dmax (%): H1975 # 25-LTC (L858R/T790M/C797S); for DC50: HTRF; for Dmax: NCI-H1975, H1975 # 25-LTC (L858R/T790M/C797S); for Dmax / Dmax (%): maximum percentage of degradation
# T1 construct: expressed in transfected cells; host or cells: H1975 clone #25 (lentiviral over-expression, endogenous EGFR knocked out by sgRNA)
# Outline: as §1
# [4] = system: Del19/C797S EGFR; experiment: EGFR degradation HTRF assay in H1975-clone #23 (DC) cells; assay type: cell-based; conditions: H1975 #23 DC (Del19/C797S), 16h treatment; for DC50: HTRF; for Dmax (%): maximum percentage of degradation
# Description: (§2) H1975-clone #28(Del19/T790M/C797S, or abbr: DTC), H1975-clone #23(Del19/C797S, or abbr: DC), H1975-clone #25(L858R/T790M/C797S, or abbr: LTC) and H1975-clone #8 (L858R/C797S, or abbr: LC). EGFR-Del19:T790M/C797S, EGFR-Del19/C797S, EGFR-L858R/T790M/C797S and EGFR-L858R/C797S were stably expressed in H1975 cell lines by lentivirus-mediated over-expression, respectively. The EGFR over-expressed cells then underwent knockout, in which the EGFR targeting sgRNA was designed to only target the endogenous EGFR copies and preserve the exogenous EGFR copies. Followed by the knockout, the edited H1975 cells were seeded in 96 well plates at the concentration of […], cultured for about 2 weeks to allow single clones formation. The formed clones were screened by DNA sequencing and whole exon sequencing analysis for the desired edition. H1975-clone #28, H1975-clone #23, H1975-clone #25 and H1975-clone #8 were finally confirmed as homozygous Del19/T790M/C797S EGFR, Dell9/C797S EGFR, L858R/T790M/C797S EGFR and L858R/C797S EGFR clones, respectively.
# (§3) H1975-#25, H1975-#28, H1975-#23 and H1975-#8 cells are treated with compounds diluted in 0.2% DMSO cell culture medium on day 2, incubate for 16h, 37° C., 5% CO2. the final concentration of compounds in all assay is start with 10 uM, 5-fold dilution, total 8 doses were included.
# (§4) After 16h treatment, add HTRF lysis buffer to each well; seal the plate and incubate 1 hour at room temperature on a plate shaker; Once the cells are lysed, 16 μL of cell lysate are transferred to a PE 384-well HTRF detection plate; 4 μL of pre-mixed HTRF antibodies are added to each well; Cover the plate with a plate sealer, spin 1000 rpm for 1 min, Incubate overnight at room temperature; Read on BMG PheraStar with HTRF protocol (337 nm-665 nm-620 nm).
# (§5) The IC50 (DC50) value of a compound can be obtained by fitting the following equation
# (§6) Y=Bottom+(TOP−Bottom)/(1+((IC50/X)^hillslope))
# (§7) Wherein, X and Y are known values, and IC50, Hillslope, Top and Bottom are the parameters obtained by fitting with software. Y is the inhibition percentage (calculated from the equation), X is the concentration of the compound: IC50 is the concentration of the compound when the 50% inhibition is reached. The smaller the IC50 value is, the stronger the inhibitory ability of the compound is. Vice versa, the higher the IC50 value is, the weaker the ability the inhibitory ability of the compound is: Hillslope represents the slope of the fitted curve, generally around 1*; Bottom represents the minimum value of the curve obtained by data fitting, which is generally 0%±20%; Top represents the maximum value of the curve obtained by data fitting, which is generally 100%±20%. The experimental data were fitted by calculating and analyzing with Dotmatics data analysis software.
# [5] = target: T2, L858R/C797S EGFR (Homo sapiens, UniProt P00533, C797S/L858R); experiment: EGFR degradation HTRF assay in H1975-clone #8 (LC) cells; assay type: cell-based; conditions: H1975 #8 LC (L858R/C797S), 16h treatment; for DC50: HTRF; for Dmax: NCI-H1975, maximum percentage of degradation
# T2 construct: expressed in transfected cells; host or cells: H1975 clone #8 (lentiviral over-expression, endogenous EGFR knocked out by sgRNA)
# Description: as §2, §3, §4, §5, §6, §7
DC50 [2] [nM],DC50 [3] [nM],Dmax [3] [%],Compound,Dmax (%) [2] [%],also measured
1.5,2,83,"Cc1cc2cc(n1)-c1cnn(C)c1OCCC[C@@H](C)CN1/C(=N/C2=O)Nc2ccc(CN3CCN(C(=O)[C@@H]4CCN(c5cc(F)c([C@H]6CCC(=O)NC6=O)c(F)c5)C4)CC3)cc21 [Example 5, (R)-3-(2,6-difluoro-4-((R)-3-(4-(((R,E)-1^1,2^6,7-trimethyl-3-oxo-5^2,5^3-dihydro-1^1H,5^1H-11-oxa-4-aza-5(2,1)-benzo[d]imidazola-2(2,4)-pyridina-1(4,5)-pyrazolacycloundecaphane-5^6-yl)methyl)piperazine-1-carbonyl)pyrrolidin-1-yl)phenyl)piperidine-2,6-dione]",72.0,DC50 [4]: 0.6 nM; Dmax (%) [4]: 67.6%
0.8,1.1,89.9,"Cc1cc2cc(n1)-c1cnn(C)c1OCCC[C@@H](C)CN1/C(=N/C2=O)Nc2ccc(CN3CCC(N4CCN(C(=O)[C@@H]5CCN(c6cc(F)c([C@H]7CCC(=O)NC7=O)c(F)c6)C5)CC4)CC3)cc21 [Example 6, (R)-3-(2,6-difluoro-4-((R)-3-(4-(1-(((R,E)-1^1,2^6,7-trimethyl-3-oxo-5^2,5^3-dihydro-1^1H,5^1H-11-oxa-4-aza-5(2,1)-benzo[d]imidazola-2(2,4)-pyridina-1(4,5)-pyrazolacycloundecaphane-5^6-yl)methyl)piperidin-4-yl)piperazine-1-carbonyl)pyrrolidin-1-yl)phenyl)piperidine-2,6-dione]",85.7,DC50 [4]: 1.7 nM; Dmax (%) [4]: 78.2%; DC50 [5]: 3 nM; Dmax [5]: 63.1%
1.7,0.8,90.1,"Cc1cc2cc(n1)-c1cnn(C)c1OCCC[C@@H](C)CN1/C(=N/C2=O)Nc2ccc(CN3CCC4(CC3)CCN(C(=O)[C@@H]3CCN(c5cc(F)c([C@H]6CCC(=O)NC6=O)c(F)c5)C3)CC4)cc21 [Example 9, (R)-3-(2,6-difluoro-4-((R)-3-(9-(((R,E)-1^1,2^6,7-trimethyl-3-oxo-5^2,5^3-dihydro-1^1H,5^1H-11-oxa-4-aza-5(2,1)-benzo[d]imidazola-2(2,4)-pyridina-1(4,5)-pyrazolacycloundecaphane-5^6-yl)methyl)-3,9-diazaspiro[5.5]undecane-3-carbonyl)pyrrolidin-1-yl)phenyl)piperidine-2,6-dione]",76.4,DC50 [4]: 1 nM; Dmax (%) [4]: 82.6%; DC50 [5]: 3.2 nM; Dmax [5]: 64.6%
2.25,2.12,88.1,"COC[C@@H]1CN(c2ccc3c(c2)N2C[C@H]4C[C@@H]4CCOc4c(cnn4C)-c4cc(cc(C)n4)C(=O)/N=C/2N3)CCN1C1CCN(c2cc(F)c([C@H]3CCC(=O)NC3=O)c(F)c2)CC1 [Example 468, (R)-3-(4-(4-((S)-4-((7'S,7^2R,E)-1^1,2^6-dimethyl-3-oxo-5^2,5^3-dihydro-1^1H,5^1H-10-oxa-4-aza-5(2,1)-benzo[d]imidazola-2(2,4)-pyridina-1(4,5)-pyrazola-7(1,2)-cyclopropanacyclodecaphane-5^6-yl)-2-(methoxymethyl)piperazin-1-yl)piperidin-1-yl)-2,6-difluorophenyl)piperidine-2,6-dione]",85.54,
0.594,0.794,82.7,"Cc1cc2cc(n1)-c1cnn(C)c1OCC[C@H]1C[C@@H]1CN1/C(=N/C2=O)Nc2ccc(N3CCN(C4CCN(c5ccc(C6CCC(=O)NC6=O)nc5)CC4)CC3)cc21 (stereo partly drawn) [Example 469, 3-(5-(4-(4-((7'S,7^2R,E)-1^1,2^6-dimethyl-3-oxo-5^2,5^3-dihydro-1^1H,5^1H-10-oxa-4-aza-5(2,1)-benzo[d]imidazola-2(2,4)-pyridina-1(4,5)-pyrazola-7(1,2)-cyclopropanacyclodecaphane-5^6-yl)piperazin-1-yl)piperidin-1-yl)pyridin-2-yl)piperidine-2,6-dione]",76.63,
0.617,0.849,92.1,"Cc1cc2cc(n1)-c1cnn(C)c1OCC[C@@H]1C[C@H]1CN1/C(=N/C2=O)Nc2ccc(N3CCN(C4CCN(c5cnc(C6CCC(=O)NC6=O)cc5C)CC4)CC3)cc21 (stereo partly shown) [Example 470, 3-(5-(4-(4-((7^1R,7^2S,E)-1^1,2^6-dimethyl-3-oxo-5^2,5^3-dihydro-1^1H,5^1H-10-oxa-4-aza-5(2,1)-benzo[d]imidazola-2(2,4)-pyridina-1(4,5)-pyrazola-7(1,2)-cyclopropanacyclodecaphane-5^6-yl)piperazin-1-yl)piperidin-1-yl)-4-methylpyridin-2-yl)piperidine-2,6-dione]",86.76,
0.587,0.28,,"(R,E)-N—((S)-1-(4-((R)-2,6-dioxopiperidin-3-yl)-3,5-difluorophenethyl)azepan-4-yl)-N,1^1,2^6,7-tetramethyl-3-oxo-5^2,5^3-dihydro-1^1H,5^1H-11-oxa-4-aza-5(2,1)-benzo[d]imidazola-2(2,4)-pyridina-1(4,5)-pyrazolacycloundecaphane-5^6-carboxamide [Example 340]",83.73,Dmax (%) [3]: 91.69%

# The remaining lines, values behind:
Compound,DC50 [2] [nM],DC50 [3] [nM],Dmax [3] [%],Dmax (%) [2] [%],also measured
COC(=O)c1cc(C)nc(-c2cnn(C)c2OCCC[C@@H](C)Cn2c(N)nc3ccc(N4CCC5(CC4=O)OCCO5)cc32)c1,,,,,"ring closure, isolated yield ([1]; the molecule shown is the open-chain precursor, LiHMDS, DMF/THF, 32.0 mM, 0.0 °C): 54.5%"
COC(=O)c1cc(C)nc(-c2cnn(C)c2OCC[C@H]2C[C@@H]2Cn2c(=N)[nH]c3ccc(Br)cc32)c1,,,,,"ring closure, isolated yield ([1]; the molecule shown is the open-chain precursor, LiHMDS, DMF/THF, 56.7 mM, 25.0 °C): 49.6%"
Cc1cc2cc(n1)-c1cnn(C)c1OCCC[C@@H](C)Cn1c(nc3ccc(Br)cc31)NC2=O,,,,,"ring closure, isolated yield ([1]; from Cc1cc(C(=O)O)cc(-c2cnn(C)c2OCCC[C@@H](C)Cn2c(N)nc3ccc(Br)cc32)n1, TBTU/TEA, DCM, 117.0 mM, 20.0 °C): 82%"
"(R)-3-(2,6-difluoro-4-(3-(7-(((R,E)-1^1,2^6,7-trimethyl-3-oxo-5^2,5^3-dihydro-1^1H,5^1H-11-oxa-4-aza-5(2,1)-benzo[d]imidazola-2(2,4)-pyridina-1(4,5)-pyrazolacycloundecaphane-5^6-yl)methyl)-2,7-diazaspiro[3.5]nonane-2-carbonyl)azetidin-1-yl)phenyl)piperidine-2,6-dione [Example 25]",0.6,0.4,,86.3,Dmax (%) [3]: 93.6%
"tert-butyl (R,E)-3-oxo-4-(1^1,2^6,7-trimethyl-3-oxo-5^2,5^3-dihydro-1^1H,5^1H-11-oxa-4-aza-5(2,1)-benzo[d]imidazola-2(2,4)-pyridina-1(4,5)-pyrazolacycloundecaphane-5′-yl)piperazine-1-carboxylate",,,,,"ring closure, isolated yield ([1]; HATU/DIEA, DCM, 155.0 mM, 25.0 °C): 51.4%"

# — patent US20240342292A1, “Compounds for the Degradation of EGFR Kinase” (BeiGene Switzerland GmbH, priority 2021, published 2024)
